According to US20230128412A1, “METHODS FOR ENHANCING RECOMBINANT ADENO-[…] YIELD” (Ultragenyx Pharmaceutical Inc., priority 2020, published 2023):

What was measured:
Type in all cases: cell-based
HEK293 cells (rAAV8-OTC) [1] = test: Effect of additional compounds on rAAV production with HEK293 cells, 24 deep-well plates; settings: for rAAV titers (summary statement): HEK293 cells
From the text: In this example, the effect of compounds other than niacinamide on rAAV production in HEK293 cells was examined. The compounds analyzed in this example included niacin, methyl nicotinate, myo-inositol, pantothenic acid, pyridoxine, choline, thiamine, glucosamine, caffeine, n-acetyl glucosamine, and thymidine.
The experiment was run in 24 deep-well plates using the same cells as described in Example 5 under similar transfection and culture conditions. The concentrations of each compound tested were 1 mM, 3 mM, and 9 mM. […] None of the other compounds tested provided a significant benefit to rAAV titer at any of the three concentrations tested.

[2] = test system: HeLa clones (AAVrh10-FIX, AAV8-G6Pase, AAVhu37-FVIII); test: Effect of niacinamide on rAAV production with Clade E HeLa clones; settings: between 1 mM and 5 mM niacinamide; all four clones
Protocol: (§1) In this example, the effect of various concentrations of niacinamide ranging from 0.1 mM to 40 mM on rAAV production was tested in a variety HeLa producer cell lines. The experiment was run in a 24 deep-well plate culture system with a 3 mL working volume, a seeding density of 0.2×10^6 cells in cell culture production medium, and an Ad5 multiplicity of infection (MOI) of 200 vp/cell. […] The capsid serotypes included in this analysis were AAV8, AAV9, rh10, and hu37.
Four different HeLa clones were tested using the conditions described in Example 1. FIG. 4A-D show the rAAV titer (GC/mL) per varying niacinamide concentrations for Clone 1 (AAVrh10-FIX) follow-up supernatant, clone 2 (AAV8-G6Pase) supernatant, Clone 3 (AAV8-G6Pase) wide range with no supplement, and Clone 4 (AAVhu37-FVIII) wide range no supplement suspension (i.e., Triton-lysed sample), respectively.

[3] = test system: HeLa producer cell line (AAVrh10-FIX); test: Effect of vessel scale (24-DW vs 100 mL shake flask) with niacinamide on rAAV production; settings: scale removed as a factor; all niacinamide concentrations
Protocol: In this example, the effect of scale using two common vessels (3 mL-deep well (“24-DW”) and 100 mL shake flask (“Flasks”)) with niacinamide on rAAV production was tested. The analysis was conducted using a HeLa producer cell line capable of producing a Clade E rAAV encoding a Factor IX transgene (AAVrh10-FIX). FIG. 3 depicts a bar graph showing rAAV titer (GC/mL) at varying niacinamide concentrations at the different scales. […] The scale and interaction factors were insignificant (p=0.3915 and p=0.1353 respectively).

HeLa producer cells = test: Effect of niacinamide concentration on rAAV production, HeLa producer cell lines, 24 deep-well plate; settings: for normalized volumetric rAAV titer: Clade E and F rAAV
Protocol: as §1

HEK293 cells (rAAV8-OTC) [4] = test: Effect of niacinamide concentration on rAAV production with HEK293 cells
Protocol: In this example, the effect of various concentrations of niacinamide ranging from 0.03 mM to 30 mM on rAAV production was tested with HEK293 cells. The experiment was run in 30 mL flasks using a transfection density of 1.3×10^6 to 2.0×10^6 cells/mL. The HEK293 cells used in this experiment were transfected with plasmids enabling the production of rAAV8 encoding an ornithine transcarbamylase (rAAV8-OTC).

[5] = test system: HeLa producer cell line clones (AAV9-ATP7B); test: Effect of niacinamide on rAAV production with Clade F HeLa clones, 2 L bioreactor; settings: 3 mM niacinamide, both clones
Protocol: In this example, the effect of 3 mM niacinamide on two HeLa producer cell line clones expressing recombinant Clade F AAV encoding a truncated ATP7B transgene (AAV9-ATP7B) was examined in a 2 L bioreactor.

[6] = niacinamide between 1 mM and 10 mM

In the case of C[N+](C)(C)CCO [choline], the increase in titer (HEK293 cells (rAAV8-OTC) [1]; 3 mM compound) is reported as 65% and the “rAAV titers (summary statement)” value (HEK293 cells (rAAV8-OTC) [1]) is reported as “can boost rAAV titers”.

For OC1C(O)C(O)C(O)C(O)C1O (centres unmarked) [myo-inositol], the increase in titer (HEK293 cells (rAAV8-OTC) [1]; 3 mM compound) was “approximately 20%”, the increase in titer (HEK293 cells (rAAV8-OTC) [1]; 9 mM compound) was “approximately 20%” and the “rAAV titers (summary statement)” value (HEK293 cells (rAAV8-OTC) [1]) was “can boost rAAV titers”.

For O=C(O)c1cccnc1 [niacin], the increase in titer (HEK293 cells (rAAV8-OTC) [1]; 1 mM compound) was 20% and the “rAAV titers (summary statement)” value (HEK293 cells (rAAV8-OTC) [1]) was “can boost rAAV titers”.

For COC(=O)c1cccnc1 [methyl nicotinate], the increase in titer (HEK293 cells (rAAV8-OTC) [1]; 3 mM compound) was 42% and the “rAAV titers (summary statement)” value (HEK293 cells (rAAV8-OTC) [1]) was “can boost rAAV titers”.

For NC(=O)c1cccnc1 [niacinamide], the “rAAV titer (GC/mL)” value [2] was “titer increase”, the “level of benefit to rAAV titer compared with the other compounds” value (HEK293 cells (rAAV8-OTC) [1]; niacinamide versus the 11 compounds of Example 6) was “substantially and surprisingly superior to the other 11 compounds examined” and the “rAAV titer, Dunnett's Test” value [3] was “significance at all concentrations”. For the same compound, the “niacinamide concentration of predicted maximum rAAV titer (3rd-order polynomial fit)” value (HeLa producer cells; fit of normalized titer data points, FIG. 2) was 5 mM, the “normalized volumetric rAAV titer” value (HeLa producer cells; niacinamide 0.1 mM to 10 mM, relative to no niacinamide) was “Increases in rAAV titer” and the “normalized volumetric rAAV titer (GC/mL), 3rd-order polynomial fit” value (HeLa producer cells; [6]) was “Significant increases in rAAV titer”. The “normalized volumetric rAAV titer” value (HeLa producer cells; [6]) was “most significant increases”, the rAAV titer (HEK293 cells (rAAV8-OTC) [4]; 0.3 mM niacinamide, 30 mL flasks) was “increases in titer” and the rAAV titer (HEK293 cells (rAAV8-OTC) [4]; 3 mM niacinamide, 30 mL flasks) was “increases in titer”. For the same compound, the rAAV titer (HEK293 cells (rAAV8-OTC) [4]; repeat run at 2 L bioreactor scale (data not shown)) was “increase in titer” and the rAAV titer [5] was “significant titer increase”.
